Experiments:
Test in all cases: Test C postemergence, plant response rating
Assay type in all cases: in vivo
[1] = system: barnyardgrass (Echinochloa crus-galli); conditions: Echinochloa crus-galli, post-emergence
Outline: (§1)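 Pre-emergence: seeds sown in loam soil–sand blend or silt loam and sprayed with test chemicals in a non-phytotoxic solvent mixture with surfactant. Post-emergence: plants 2 to 18 cm (1- to 4-leaf stage) in peat-based potting medium, same formulation. Greenhouse 13 to 15 d; visual rating 0 (no effect) to 100 (complete control) versus controls.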

[2] = system: blackgrass (Alopecurus myosuroides); conditions: Alopecurus myosuroides, post-emergence
Outline: as §1

corn (Zea mays) = conditions: Zea mays, post-emergence
Outline: as §1

[3] = system: crabgrass, large (large crabgrass, Digitaria sanguinalis); conditions: Digitaria sanguinalis, post-emergence
Outline: as §1

[4] = system: foxtail, giant (giant foxtail, Setaria faberii); conditions: Setaria faberi, post-emergence
Outline: as §1

[5] = system: galium (catchweed bedstraw, Galium aparine); conditions: Galium, post-emergence
Outline: as §1

[6] = system: lambsquarters (Chenopodium album); conditions: Chenopodium album, post-emergence
Outline: as §1

[7] = system: nutsedge, yellow (yellow nutsedge, Cyperus esculentus); conditions: Cyperus, post-emergence
Outline: as §1

[8] = system: oat, wild (wild oat Avena fatua); conditions: Avena fatua, post-emergence
Outline: as §1

[9] = system: oilseed rape (Brassica napus); conditions: Brassica napus, post-emergence
Outline: as §1

[10] = system: ragweed (common ragweed, Ambrosia elatior); conditions: Ambrosia artemisiifolia, post-emergence
Outline: as §1

[11] = system: ryegrass, Italian (Italian ryegrass, Lolium multiflorum); conditions: Lolium multiflorum, post-emergence
Outline: as §1

soybean (Glycine max) = conditions: Glycine max, post-emergence
Outline: as §1

[12] = system: velvetleaf (Abutilon theophrasti); conditions: Abutilon theophrasti, post-emergence
Outline: as §1

[13] = system: waterhemp (common waterhemp, Amaranthus rudis); conditions: for Plant response rating, Waterhemp: scale 0 to 100; for Waterhemp plant response rating: scale 0 to 100 (0 no effect, 100 complete control)
Outline: as §1

[14] = system: wheat (winter wheat, Triticum aestivum); conditions: Triticum aestivum, post-emergence
Outline: as §1

[15] = 62 g ai/ha, scale 0 to 100 (0 no effect, 100 complete control)
[16] = 125 g ai/ha, scale 0 to 100 (0 no effect, 100 complete control)

C=CCOC(=O)c1c(Br)cccc1Oc1ncc(Cl)cn1 [Compound 22, 2-propen-1-yl 2-bromo-6-[(5-chloro-2-pyrimidinyl)oxy]benzoate]
40%: plant injury at 31 g/ha ([9]; 31 g ai/ha, scale 0 to 100) | plant injury at 16 g/ha (soybean (Glycine max); 16 g ai/ha, scale 0 to 100) | plant injury at 31 g/ha (soybean (Glycine max); 31 g ai/ha, scale 0 to 100) | pest or weed control at 31 g/ha ([12]; 31 g ai/ha, scale 0 to 100)
55%: plant injury at 62 g/ha [9, 15] | pest or weed control at 62 g/ha ([12]; 62 g ai/ha, scale 0 to 100 (0 no effect, 100 complete control), read-out: Velvetleaf plant response rating)
80: Waterhemp plant response rating ([13]; 125 g ai/ha)
5%: pest or weed control at 16 g/ha ([1]; 16 g ai/ha, scale 0 to 100) | pest or weed control at 31 g/ha ([1]; 31 g ai/ha, scale 0 to 100) | pest or weed control at 125 g/ha [2, 16] | Corn plant response rating (crop injury, 0 = no effect, 100 = complete kill) at 16 g/ha (corn (Zea mays); 16 g ai/ha, scale 0 to 100) | Corn plant response rating (crop injury, 0 = no effect, 100 = complete kill) at 31 g/ha (corn (Zea mays); 31 g ai/ha, scale 0 to 100) | plant injury at 62 g/ha (corn (Zea mays); [15]) | pest or weed control at 62 g/ha [7, 15] | pest or weed control at 125 g/ha [7, 16] | pest or weed control at 125 g/ha [8, 16] | pest or weed control at 16 g/ha ([10]; 16 g ai/ha, scale 0 to 100) | pest or weed control at 125 g/ha [11, 16]
70%: pest or weed control at 125 g/ha [5, 16] | pest or weed control at 31 g/ha ([6]; 31 g ai/ha, scale 0 to 100) | pest or weed control at 62 g/ha [6, 15]
50%: pest or weed control at 62 g/ha [10, 15] | pest or weed control at 125 g/ha [10, 16] | pest or weed control at 16 g/ha ([12]; 16 g ai/ha, scale 0 to 100)
15%: plant injury at 125 g/ha (corn (Zea mays); [16]) | pest or weed control at 31 g/ha ([3]; 31 g ai/ha, scale 0 to 100) | pest or weed control at 62 g/ha [4, 15]
10%: pest or weed control at 62 g/ha [1, 15] | pest or weed control at 125 g/ha [1, 16] | pest or weed control at 16 g/ha ([3]; 16 g ai/ha, scale 0 to 100) | pest or weed control at 16 g/ha ([4]; 16 g ai/ha, scale 0 to 100) | pest or weed control at 31 g/ha ([4]; 31 g ai/ha, scale 0 to 100) | pest or weed control at 16 g/ha ([5]; 16 g ai/ha, scale 0 to 100)
85: Waterhemp plant response rating ([13]; 62 g ai/ha)
85%: pest or weed control at 125 g/ha [12, 16]
80%: plant injury at 125 g/ha [9, 16]
60%: pest or weed control at 62 g/ha [5, 15]
0%: pest or weed control at 16 g/ha ([2]; 16 g ai/ha, scale 0 to 100) | pest or weed control at 31 g/ha ([2]; 31 g ai/ha, scale 0 to 100) | pest or weed control at 62 g/ha [2, 15] | pest or weed control at 16 g/ha ([7]; 16 g ai/ha, scale 0 to 100) | pest or weed control at 31 g/ha ([7]; 31 g ai/ha, scale 0 to 100) | pest or weed control at 16 g/ha ([8]; 16 g ai/ha, scale 0 to 100) | pest or weed control at 31 g/ha ([8]; 31 g ai/ha, scale 0 to 100) | pest or weed control at 62 g/ha [8, 15] | pest or weed control at 16 g/ha ([11]; 16 g ai/ha, scale 0 to 100) | pest or weed control at 31 g/ha ([11]; 31 g ai/ha, scale 0 to 100) | pest or weed control at 62 g/ha [11, 15] | plant injury at 16 g/ha ([14]; 16 g ai/ha, scale 0 to 100) | plant injury at 31 g/ha ([14]; 31 g ai/ha, scale 0 to 100) | plant injury at 62 g/ha ([14]; 62 g ai/ha, scale 0 to 100 (0 no effect, 100 complete control), read-out: Wheat plant response rating) | plant injury at 125 g/ha [14, 16]
35%: plant injury at 16 g/ha ([9]; 16 g ai/ha, scale 0 to 100) | pest or weed control at 31 g/ha ([10]; 31 g ai/ha, scale 0 to 100) | plant injury at 62 g/ha (soybean (Glycine max); [15])
75%: pest or weed control at 125 g/ha [6, 16] | plant injury at 125 g/ha (soybean (Glycine max); [16])
75: Plant response rating, Waterhemp ([13]; 16 g ai/ha) | Plant response rating, Waterhemp ([13]; 31 g ai/ha)
25%: pest or weed control at 62 g/ha [3, 15] | pest or weed control at 125 g/ha [3, 16] | pest or weed control at 125 g/ha [4, 16] | pest or weed control at 31 g/ha ([5]; 31 g ai/ha, scale 0 to 100)
65%: pest or weed control at 16 g/ha ([6]; 16 g ai/ha, scale 0 to 100)
